{
  "source": "paper PMC8240349",
  "about": "(Journal of Traditional and Complementary Medicine, 2021)",
  "origin": "cited, not measured here",
  "system": "CCA",
  "conditions": "bioassay-guided activity; cited from earlier work",
  "data": [
    {"smiles": "C=C1CCC[C@]2(C)CC[C@@H](C(C)(C)O)C[C@@H]12", "note": "[β-eudesmol]", "values": [
      {"measurement": "IC50, anti-CCA activity", "value": "20 to 25", "unit": "µg/mL"}
    ]}
  ]
}
